{"source": "paper PMC11571207", "about": "“Stereorandomized Oncocins with Preserved Ribosome Binding and Antibacterial Activity” (Journal of Medicinal Chemistry, 2024)", "key": {"[1]": {"system": "P. aeruginosa PA14 4.18 (pmrB)", "details": "for MIC P. aeruginosa PA14 4.18: supplement CSV"}, "human red blood cells": {"system": "human red blood cells", "assay": "Hemolysis assay, minimum hemolytic concentration"}, "P. aeruginosa ZEM-1A": {"system": "P. aeruginosa ZEM-1A", "assay": "microbe, parasite or virus in culture", "details": "for MIC P. aeruginosa ZEM-1A: supplement CSV", "procedure,_shortened": "(§1)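 Minimal inhibitory concentrations come from broth microdilution in MH medium, with a top peptide concentration of 64 μg/mL halved serially.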"}, "[2]": {"system": "P. aeruginosa PA14 2P4 (pmrB)", "assay": "microbe, parasite or virus in culture", "details": "for MIC P. aeruginosa PA14 2P4: supplement CSV", "procedure,_shortened": "as §1"}, "E. cloacae": {"system": "E. cloacae", "assay": "microbe, parasite or virus in culture", "details": "for MIC E. cloacae: supplement CSV", "procedure,_shortened": "as §1"}, "K. pneumoniae OXA-48": {"system": "K. pneumoniae OXA-48", "assay": "microbe, parasite or virus in culture", "details": "for MIC K. pneumoniae OXA-48: supplement CSV", "procedure,_shortened": "as §1"}, "P. aeruginosa ZEM9A": {"system": "P. aeruginosa ZEM9A", "assay": "microbe, parasite or virus in culture", "details": "for MIC P. aeruginosa ZEM9A: supplement CSV", "procedure,_shortened": "as §1"}, "P. aeruginosa PA14": {"system": "P. aeruginosa PA14", "assay": "microbe, parasite or virus in culture", "details": "for MIC P. aeruginosa PA14: supplement CSV", "procedure,_shortened": "as §1"}, "E. coli W3110": {"system": "E. coli W3110", "assay": "microbe, parasite or virus in culture", "details": "for MIC E. coli W3110: supplement CSV", "procedure,_shortened": "(§2)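 Read-out was visible growth after MTT addition, the MIC being the lowest inhibitory peptide concentration. Bacteria grown to log phase in LB were exposed in MH medium to peptide from 64 μg/mL in twofold dilutions for 15-18h at 37°C.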"}, "K. pneumoniae NCTC 418": {"system": "K. pneumoniae NCTC 418", "assay": "microbe, parasite or virus in culture", "details": "for MIC K. pneumoniae NCTC418: supplement CSV", "procedure,_shortened": "as §2"}, "A. baumannii ATCC19606": {"system": "A. baumannii ATCC19606", "assay": "microbe, parasite or virus in culture", "details": "for MIC A. baumannii ATCC19606: supplement CSV", "procedure,_shortened": "as §2"}, "P. aeruginosa PAO1": {"system": "P. aeruginosa PAO1", "assay": "microbe, parasite or virus in culture", "details": "for MIC P. aeruginosa PAO1: supplement CSV", "procedure,_shortened": "as §2"}, "S. aureus COL (MRSA)": {"system": "S. aureus COL (MRSA)", "assay": "microbe, parasite or virus in culture", "details": "for MIC S. aureus COL (MRSA): supplement CSV", "procedure,_shortened": "as §2"}, "[3]": {"details": "polymyxin B resistant strain, 12.5% MHB pH 7.4, 16–20 h at 37 °C"}, "[4]": {"details": "polymyxin B resistant strain, full MHB pH 7.4, 16–20 h at 37 °C"}}, "note": "Like-named read-outs stand apart in the source and are kept apart here. No end group written: not given here."}
{"sequence": "VDKPPYLPRPRPPRRIYNR [sr14Nterm-Onc] (VDKPPYLPRPRPPRRIYNR-NH2; also: residues 1-14 stereorandomized (1:1 L/D mixture))", "values": [{"measurement": "MIC P. aeruginosa PA14 4.18 (pmrB), 12.5% MHB", "setting": "[1]; [3]", "result": 32, "unit": "µg/mL"}, {"measurement": "MIC P. aeruginosa PA14 4.18 (pmrB), full MHB", "setting": "[1]; [4]", "result": "> 64", "unit": "µg/mL"}, {"measurement": "MIC P. aeruginosa PA14 4.18", "setting": "[1]; 12.5% MH pH 7.4", "result": 32, "unit": "µg/mL"}, {"measurement": "MIC P. aeruginosa PA14 4.18", "setting": "[1]; full MH pH 7.4", "result": ">64", "unit": "µg/mL"}, {"measurement": "Haemolysis on hRBC, MHC", "setting": "human red blood cells; 2.5% human red blood cells (final) in 10 mM phosphate, 150 mM NaCl, pH 7.4, 25 °C, 4 h, visual inspection", "result": ">1000", "unit": "µg/mL"}, {"measurement": "MHC human red blood cells", "setting": "human red blood cells; supplement CSV", "result": ">1000", "unit": "µg/mL"}, {"measurement": "MIC P. aeruginosa ZEM-1A, 12.5% MHB", "setting": "P. aeruginosa ZEM-1A; clinical isolate, 12.5% MHB pH 7.4, 16–20 h at 37 °C, cells marked c: single measurement (in duplicates)", "result": ">64/>64 ^c μg/mL"}, {"measurement": "MIC P. aeruginosa ZEM-1A, full MHB", "setting": "P. aeruginosa ZEM-1A; clinical isolate, full MHB pH 7.4, 16–20 h at 37 °C, cells marked c: single measurement (in duplicates)", "result": ">64/>64 ^c μg/mL"}, {"measurement": "MIC P. aeruginosa ZEM-1A", "setting": "P. aeruginosa ZEM-1A; 12.5% MH pH 7.4", "result": ">64", "unit": "µg/mL"}, {"measurement": "MIC P. aeruginosa ZEM-1A", "setting": "P. aeruginosa ZEM-1A; full MH pH 7.4", "result": ">64", "unit": "µg/mL"}, {"measurement": "MIC P. aeruginosa PA14 2P4 (pmrB), 12.5% MHB", "setting": "[2]; [3]", "result": 16, "unit": "µg/mL"}, {"measurement": "MIC P. aeruginosa PA14 2P4 (pmrB), full MHB", "setting": "[2]; [4]", "result": "> 64", "unit": "µg/mL"}, {"measurement": "MIC P. aeruginosa PA14 2P4", "setting": "[2]; 12.5% MH pH 7.4", "result": 16, "unit": "µg/mL"}, {"measurement": "MIC P. aeruginosa PA14 2P4", "setting": "[2]; full MH pH 7.4", "result": ">64", "unit": "µg/mL"}, {"measurement": "MIC E. cloacae, 12.5% MHB", "setting": "E. cloacae; 12.5% MHB pH 7.4, 16–20 h at 37 °C", "result": 8, "unit": "µg/mL"}, {"measurement": "MIC E. cloacae, full MHB", "setting": "E. cloacae; full MHB pH 7.4, 16–20 h at 37 °C", "result": "> 64", "unit": "µg/mL"}, {"measurement": "MIC E. cloacae", "setting": "E. cloacae; 12.5% MH pH 7.4", "result": 8, "unit": "µg/mL"}, {"measurement": "MIC E. cloacae", "setting": "E. cloacae; full MH pH 7.4", "result": ">64", "unit": "µg/mL"}, {"measurement": "MIC K. pneumoniae OXA-48, 12.5% MHB", "setting": "K. pneumoniae OXA-48; carbapenem-resistant, 12.5% MHB pH 7.4, 16–20 h at 37 °C", "result": ">64/>64 μg/mL"}, {"measurement": "MIC K. pneumoniae OXA-48, full MHB", "setting": "K. pneumoniae OXA-48; carbapenem-resistant, full MHB pH 7.4, 16–20 h at 37 °C", "result": ">64/>64 μg/mL"}, {"measurement": "MIC K. pneumoniae OXA-48", "setting": "K. pneumoniae OXA-48; 12.5% MH pH 7.4", "result": ">64", "unit": "µg/mL"}, {"measurement": "MIC K. pneumoniae OXA-48", "setting": "K. pneumoniae OXA-48; full MH pH 7.4", "result": ">64", "unit": "µg/mL"}, {"measurement": "MIC P. aeruginosa ZEM9A, 12.5% MHB", "setting": "P. aeruginosa ZEM9A; clinical isolate, 12.5% MHB pH 7.4, 16–20 h at 37 °C", "result": ">64/64 μg/mL"}, {"measurement": "MIC P. aeruginosa ZEM9A, full MHB", "setting": "P. aeruginosa ZEM9A; clinical isolate, full MHB pH 7.4, 16–20 h at 37 °C", "result": ">64/64 μg/mL"}, {"measurement": "MIC P. aeruginosa ZEM9A", "setting": "P. aeruginosa ZEM9A; 12.5% MH pH 7.4", "result": 64, "unit": "µg/mL"}, {"measurement": "MIC P. aeruginosa ZEM9A", "setting": "P. aeruginosa ZEM9A; full MH pH 7.4", "result": ">64", "unit": "µg/mL"}, {"measurement": "MIC P. aeruginosa PA14, 12.5% MHB", "setting": "P. aeruginosa PA14; 12.5% MHB pH 7.4, 16–20 h at 37 °C, two different duplicate MIC determinations", "result": ">64/64 μg/mL"}, {"measurement": "MIC P. aeruginosa PA14, full MHB", "setting": "P. aeruginosa PA14; full MHB pH 7.4, 16–20 h at 37 °C, two different duplicate MIC determinations", "result": ">64/64 μg/mL"}, {"measurement": "MIC P. aeruginosa PA14", "setting": "P. aeruginosa PA14; 12.5% MH pH 7.4", "result": 64, "unit": "µg/mL"}, {"measurement": "MIC P. aeruginosa PA14", "setting": "P. aeruginosa PA14; full MH pH 7.4", "result": ">64", "unit": "µg/mL"}, {"measurement": "MIC E. coli, 12.5% MHB", "setting": "E. coli W3110; E. coli W3110, 12.5% Müller–Hinton medium, 16–20 h at 37 °C, broth microdilution", "result": 4, "unit": "µg/mL"}, {"measurement": "MIC E. coli, Full MHB", "setting": "E. coli W3110; E. coli W3110, full Müller–Hinton medium, 16–20 h at 37 °C, broth microdilution", "result": 64, "unit": "µg/mL"}, {"measurement": "MIC E. coli W3110", "setting": "E. coli W3110; 12.5% MH pH 7.4", "result": 4, "unit": "µg/mL"}, {"measurement": "MIC E. coli W3110", "setting": "E. coli W3110; full MH pH 7.4", "result": 64, "unit": "µg/mL"}, {"measurement": "MIC K. pneumoniae, 12.5% MHB", "setting": "K. pneumoniae NCTC 418; K. pneumoniae NCTC 418, 12.5% Müller–Hinton medium, 16–20 h at 37 °C", "result": "> 16", "unit": "µg/mL"}, {"measurement": "MIC K. pneumoniae, Full MHB", "setting": "K. pneumoniae NCTC 418; K. pneumoniae NCTC 418, full Müller–Hinton medium, 16–20 h at 37 °C", "result": "> 64", "unit": "µg/mL"}, {"measurement": "MIC K. pneumoniae NCTC418", "setting": "K. pneumoniae NCTC 418; 12.5% MH pH 7.4", "result": ">16", "unit": "µg/mL"}, {"measurement": "MIC K. pneumoniae NCTC418", "setting": "K. pneumoniae NCTC 418; full MH pH 7.4", "result": ">64", "unit": "µg/mL"}, {"measurement": "MIC A. baumannii, 12.5% MHB", "setting": "A. baumannii ATCC19606; A. baumannii ATCC19606, 12.5% Müller–Hinton medium, 16–20 h at 37 °C", "result": 16, "unit": "µg/mL"}, {"measurement": "MIC A. baumannii, Full MHB", "setting": "A. baumannii ATCC19606; A. baumannii ATCC19606, full Müller–Hinton medium, 16–20 h at 37 °C", "result": 64, "unit": "µg/mL"}, {"measurement": "MIC A. baumannii ATCC19606", "setting": "A. baumannii ATCC19606; 12.5% MH pH 7.4", "result": 16, "unit": "µg/mL"}, {"measurement": "MIC A. baumannii ATCC19606", "setting": "A. baumannii ATCC19606; full MH pH 7.4", "result": 64, "unit": "µg/mL"}, {"measurement": "MIC P. aeruginosa, 12.5% MHB", "setting": "P. aeruginosa PAO1; P. aeruginosa PAO1, 12.5% Müller–Hinton medium, 16–20 h at 37 °C", "result": "> 16", "unit": "µg/mL"}, {"measurement": "MIC P. aeruginosa, Full MHB", "setting": "P. aeruginosa PAO1; P. aeruginosa PAO1, full Müller–Hinton medium, 16–20 h at 37 °C", "result": "> 64", "unit": "µg/mL"}, {"measurement": "MIC P. aeruginosa PAO1", "setting": "P. aeruginosa PAO1; 12.5% MH pH 7.4", "result": ">16", "unit": "µg/mL"}, {"measurement": "MIC P. aeruginosa PAO1", "setting": "P. aeruginosa PAO1; full MH pH 7.4", "result": ">64", "unit": "µg/mL"}, {"measurement": "MIC S. aureus, 12.5% MHB", "setting": "S. aureus COL (MRSA); S. aureus COL (MRSA), 12.5% Müller–Hinton medium, 16–20 h at 37 °C", "result": ">64 / >64 μg/mL"}, {"measurement": "MIC S. aureus, Full MHB", "setting": "S. aureus COL (MRSA); S. aureus COL (MRSA), full Müller–Hinton medium, 16–20 h at 37 °C", "result": ">64 / >64 μg/mL"}, {"measurement": "MIC S. aureus COL (MRSA)", "setting": "S. aureus COL (MRSA); 12.5% MH pH 7.4", "result": ">64", "unit": "µg/mL"}, {"measurement": "MIC S. aureus COL (MRSA)", "setting": "S. aureus COL (MRSA); full MH pH 7.4", "result": ">64", "unit": "µg/mL"}]}
